Key:
[1] = Variable humidity XRPD (VH-XRPD); format: physicochemical; settings: between 0 and 90% RH
Procedure: […] analysis was carried out on a Philips X'Pert Pro Multipurpose diffractometer equipped with a humidity chamber. The samples were scanned between 4 and 35.99°2θ using Cu K radiation (α1λ=1.54060 Å; α2=1.54443 Å; β=1.39225 Å; α1; α2 ratio=0.5) running in Bragg-Brentano geometry (step size 0.008°2θ) using 40 kV/40 mA generator settings. Table 10 details the humidity program used.

[2] = Hydration study in 2-propanol/water systems; format: physicochemical
Procedure: A hydration study of Compound 3 Form A was conducted using 4 different aw 2-propanol/water solvent systems. Approximately 20 mg of Compound 3 Form A was weighed into four 2 mL glass vials. An appropriate volume of solvent system was added to the solids and samples were agitated for about 48 hours under ambient conditions. After 48 hours, solids were isolated using centrifuge filtration and analyzed by XRPD. […] (FIG. 32)

[3] = Storage stability of Compound 3 forms (80° C., 40° C./75% RH, 25° C./60% RH, ambient); format: physicochemical
[4] = Solution stress testing (acid, base, oxidative degradation); format: physicochemical
[5] = Caco2 permeability and efflux ratio; format: in vitro ADME; settings: human, Caco-2; Caco2; read-out: Efflux ratio (B-A/A-B)
[6] = system: Caco2; experiment: Caco2 permeability and efflux ratio; format: in vitro ADME; settings: A-B
[7] = Dose number and BCS classification; format: physicochemical
[8] = Polymorph study: temperature cycling; format: physicochemical
Procedure: Approximately 960 mg of Compound 3 Form A was weighed into a 20 mL glass vial and dissolved using 12 mL 1,4-dioxane. 0.5 mL of the solution was then dispensed into twenty-four 1.5 mL HPLC glass vials (approx. 40 mg per vial). The Compound 3 Form A solutions were then frozen (at −50° C.) and dried by lyophilization using a Lablyo mini freeze drier. Post-lyophilization, a sub-sample was taken and analyzed by XRPD. Material was successfully rendered amorphous by lyophilization.
An appropriate volume of solvent (solvent systems are detailed in Table 17) was added to lyophilized solids. The samples were temperature cycled between ambient and 40° C. (4 hour cycles) for around 72 hours. Observations were made after 72 hours temperature cycling. Further solvent was added to the samples to produce a mobile slurry and slurries were agitated at 40° C. for approximately 18 additional hours. A sub-sample of solid (where applicable) was analyzed by XRPD. Samples were heated using a heat gun to aid dissolution to ensure saturated solutions were produced. Saturated solutions were syringe filtered to remove any potential seed material (as a precaution) and divided between three different crystallization conditions: cooling, evaporation, and anti-solvent addition (volumes of saturated solutions per condition can be found in Table 17).

[9] = Polymorph study: crash cooling; format: physicochemical
Procedure: Saturated solutions of Compound 3 produced from temperature cycling experiments were placed into a fridge to crash cool to 4° C. After about 4 days, observations were made and solids produced were isolated using centrifuge filtration and analyzed by XRPD. Where no solids were recovered, solutions were placed into a freezer (−20° C.) for 14 days. Any solids produced were isolated by centrifuge filtration and analyzed by XRPD (Table 19).

[10] = X-ray powder diffraction (XRPD); format: physicochemical; settings: Table 27A
Procedure: Most XRPD patterns were collected with a PANalytical X′Pert PRO MPD diffractometer using an incident beam of Cu Kα radiation produced using a long, fine-focus source and a nickel filter. The diffractometer was configured using the symmetric Bragg-Brentano geometry. Prior to the analysis, a silicon specimen (NIST SRM 640e) was analyzed to verify the observed position of the Si 111 peak is consistent with the NIST-certified position. A specimen of the sample was prepared as a thin, circular layer centered on a silicon zero-background substrate. Antiscatter slits (SS) were used to minimize the background generated by air. Soller slits for the incident and diffracted beams were used to minimize broadening from axial divergence. Diffraction patterns were collected using a scanning position-sensitive detector (X′Celerator) located 240 mm from the sample and Data Collector software v. 2.2b.
A few XRPD patterns were collected with a PANalytical X′Pert PRO MPD diffractometer using an incident beam of Cu radiation produced using an Optix long, fine-focus source. […] Prior to the analysis, a silicon specimen (NIST SRM 640e) was analyzed to verify the observed position of the Si 111 peak is consistent with the NIST-certified position. A specimen of the sample was sandwiched between 3-μm-thick films and analyzed in transmission geometry. […]

[11] = 40% Ethanol / 60% Water (% v/v) calc. aw = 0.7
[12] = 50% 2-Propanol / 50% Heptane (% v/v), WC = weakly crystalline
[13] = 50% Acetonitrile / 50% Water (% v/v) calc. aw = 0.9
[14] = 50% Ethanol / 50% Heptane (% v/v)
[15] = 70% 2-Propanol / 30% Water (% v/v) aw = 0.8
[16] = 95% 2-Propanol / 5% Heptane (% v/v)
[17] = 95% Methanol / 5% Water (% v/v) calc. aw = 0.2

## CC(=O)c1nn(CC(=O)N2[C@H](C(=O)Nc3nc(Br)ccc3C)C[C@@]3(C)C[C@@H]23)c2ccc(-c3cnc(C)nc3)cc12 [Compound 3 Form A]
[1]
  VH-XRPD: change in form with humidity: no changes in form
[2]; Water activity (aw) 0.354, 2-propanol/water, about 48 hours, ambient
  Hydration study: XRPD results: Form A
[2]; Water activity (aw) 0.526
  Hydration study: XRPD results: Form A
[2]; Water activity (aw) 0.704
  Hydration study: XRPD results: Predominantly amorphous
[2]; Water activity (aw) 0.910
  Hydration study: XRPD results: Predominantly amorphous
[3]; 1 week, WC = weakly crystalline
  1 week stability: 25° C./60% RH XRPD (uncapped): WC Form A
[3]; 25° C./60% RH, uncapped vial
  Stability: form by XRPD after storage: weakly crystalline Form A

## CC(=O)c1nn(CC(=O)N2[C@H](C(=O)Nc3nc(Br)ccc3C)C[C@@]3(C)C[C@@H]23)c2ccc(-c3cnc(C)nc3)cc12 [Compound 3, (1R,3S,5R)-2-(2-(3-acetyl-5-(2-methylpyrimidin-5-yl)-1H-indazol-1-yl)acetyl)-N-(6-bromo-3-methylpyridin-2-yl)-5-methyl-2-azabicyclo[3.1.0]hexane-3-carboxamide]
[4]; 0.1N HCl
  Solution stress testing: Acid degradation: Degradation observed
[4]; 0.1N NaOH
  Solution stress testing: Base degradation: Degradation observed
[4]; H2O2
  Solution stress testing: Oxidative degradation: Not susceptible to oxidation
[5]
  efflux ratio: 2.2
[6]
  Caco2: A-B: Caco2: A-B ~17 × 10^−6 cm/s
[7]
  BCS class: BCS II compound
[7]; for 100 mg dose
  Dose Number: Dose Number for 100 mg dos 3-7
[8]; 1,4-Dioxane
  Crystallization technique: Maturation: Clear solution
[8]; 1-Butanol
  Crystallization technique: Maturation: Form A
[8]; 2-Methyl Tetrahydrofuran
  Crystallization technique: Maturation: Form A
[8]; 2-Propanol
  Crystallization technique: Maturation: Form A
[8]; [11]
  Crystallization technique: Maturation: Pattern N
[8]; [12]
  Crystallization technique: Maturation: Form A (WC)
[8]; [13]
  Crystallization technique: Maturation: Clear solution
[8]; [14]
  Crystallization technique: Maturation: Amorphous
[8]; 70% 2-Propanol / 30% Heptane (% v/v), WC = weakly crystalline
  Crystallization technique: Maturation: Form B (WC)
[8]; [15]
  Crystallization technique: Maturation: Form A
[8]; [16]
  Crystallization technique: Maturation: Form A
[8]; 95% Heptane / 5% 2-Propanol (% v/v), WC = weakly crystalline
  Crystallization technique: Maturation: Form A (WC)
[8]; [17]
  Crystallization technique: Maturation: Amorphous
[8]; Acetone
  Crystallization technique: Maturation: Form B
[8]; Acetonitrile
  Crystallization technique: Maturation: Form J
[8]; Ethanol
  Crystallization technique: Maturation: Amorphous
[8]; Ethyl Acetate (dry)
  Crystallization technique: Maturation: Amorphous
[8]; Methanol
  Crystallization technique: Maturation: Pattern O
[8]; Methylethyl Ketone
  Crystallization technique: Maturation: Form A
[8]; Methylisobutyl Ketone, WC = weakly crystalline
  Crystallization technique: Maturation: Form A (WC)
[8]; Tetrahydrofuran
  Crystallization technique: Maturation: Clear solution
[8]; Toluene
  Crystallization technique: Maturation: Amorphous
[8]; n-Heptane
  Crystallization technique: Maturation: Amorphous
[8]; tert-Butylmethyl Ether
  Crystallization technique: Maturation: Amorphous
[9]; 1-Butanol
  Crystallization technique: Cooling: Form A
[9]; 2-Methyl Tetrahydrofuran
  Crystallization technique: Cooling: Clear solution
[9]; 2-Propanol
  Crystallization technique: Cooling: Form A
[9]; [11]
  Crystallization technique: Cooling: Amorphous
[9]; [12]
  Crystallization technique: Cooling: Form A (WC)
[9]; [13]
  Crystallization technique: Cooling: Clear solution
[9]; [14]
  Crystallization technique: Cooling: Form A
[9]; 70% 2-Propanol / 30% Heptane (% v/v)
  Crystallization technique: Cooling: Clear solution
[9]; [15]
  Crystallization technique: Cooling: Clear solution
[9]; [16]
  Crystallization technique: Cooling: Form A
[9]; 95% Heptane / 5% 2-Propanol (% v/v)
  Crystallization technique: Cooling: Clear solution
[9]; [17]
  Crystallization technique: Cooling: Clear solution
[9]; Acetone
  Crystallization technique: Cooling: Form A
[9]; Acetonitrile
  Crystallization technique: Cooling: Clear solution
[9]; Ethanol
  Crystallization technique: Cooling: Amorphous
[9]; Ethyl Acetate (dry)
  Crystallization technique: Cooling: Amorphous
[9]; Methanol
  Crystallization technique: Cooling: Clear solution
[9]; Methylethyl Ketone
  Crystallization technique: Cooling: Clear solution
[9]; Methylisobutyl Ketone
  Crystallization technique: Cooling: Clear solution
[9]; Tetrahydrofuran
  Crystallization technique: Cooling: Clear solution
[9]; Toluene
  Crystallization technique: Cooling: Amorphous
[9]; n-Heptane
  Crystallization technique: Cooling: Clear solution
[9]; tert-Butylmethyl Ether
  Crystallization technique: Cooling: Clear solution

## CC(=O)c1nn(CC(=O)N2[C@H](C(=O)Nc3nc(Br)ccc3C)C[C@@]3(C)C[C@@H]23)c2ccc(-c3cnc(C)nc3)cc12 [Form B]
[10]
  XRPD: Form B

— patent US11807627B2, “Morphic forms of complement factor D inhibitors” (priority 2018, dated 2023)
